# Test results: patent US7074789B2, “Kinase inhibitors” (Amgen Inc., priority 1999, dated 2006)
# Experiments:
# Format in all cases: biochemical
# Zap-70 = biological target: T1, Zap-70 (Homo sapiens, UniProt P43403); test: Kinase inhibition assay (33P transfer), Zap-70; details: read-out: Zap-1
# T1 construct: Kinases are expressed as either kinase domains or full length constructs; made in house
# T1 sequence (P43403 1-619): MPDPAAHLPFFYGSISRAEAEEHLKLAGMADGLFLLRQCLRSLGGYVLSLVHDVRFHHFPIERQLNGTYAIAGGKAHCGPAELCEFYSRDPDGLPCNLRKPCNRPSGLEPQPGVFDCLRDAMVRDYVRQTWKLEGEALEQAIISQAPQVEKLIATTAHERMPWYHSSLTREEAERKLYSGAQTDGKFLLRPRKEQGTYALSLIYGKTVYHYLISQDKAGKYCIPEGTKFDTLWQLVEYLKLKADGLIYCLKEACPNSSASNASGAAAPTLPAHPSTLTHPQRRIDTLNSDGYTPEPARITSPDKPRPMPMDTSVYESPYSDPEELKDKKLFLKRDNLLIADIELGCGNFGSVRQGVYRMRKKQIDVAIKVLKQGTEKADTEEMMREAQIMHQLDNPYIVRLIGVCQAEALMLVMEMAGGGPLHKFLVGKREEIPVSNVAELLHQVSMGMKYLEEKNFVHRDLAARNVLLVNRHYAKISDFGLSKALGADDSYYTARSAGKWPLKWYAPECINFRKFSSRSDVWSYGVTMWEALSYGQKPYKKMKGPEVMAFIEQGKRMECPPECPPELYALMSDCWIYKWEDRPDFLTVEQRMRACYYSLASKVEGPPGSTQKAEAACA
# Procedure, shortened: (§1)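 Enzyme activity is taken as the amount of 33PO4 moved from ATP onto poly(Glu, Tyr) 4:1 or poly(Arg, Ser) 3:1 fixed to the plate surface. Unbound label is removed with 0.5% phosphoric acid before scintillation counting.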
# Kdr = biological target: T2, Kdr (Homo sapiens, UniProt P35968); test: Kinase inhibition assay (33P transfer), Kdr; details: read-out: KDR-1
# T2 construct: Kinases are expressed as either kinase domains or full length constructs; made in house
# Procedure, shortened: as §1
# AKT = biological target: T3, AKT (Homo sapiens, UniProt Q9Y243); test: Kinase inhibition assay (33P transfer), AKT; details: Table 2, kinase inhibition class; read-out: AKT3-1
# T3 construct: Kinases are expressed as either kinase domains or full length constructs; made in house
# T3 sequence (Q9Y243 whole entry, the tested form may be a part): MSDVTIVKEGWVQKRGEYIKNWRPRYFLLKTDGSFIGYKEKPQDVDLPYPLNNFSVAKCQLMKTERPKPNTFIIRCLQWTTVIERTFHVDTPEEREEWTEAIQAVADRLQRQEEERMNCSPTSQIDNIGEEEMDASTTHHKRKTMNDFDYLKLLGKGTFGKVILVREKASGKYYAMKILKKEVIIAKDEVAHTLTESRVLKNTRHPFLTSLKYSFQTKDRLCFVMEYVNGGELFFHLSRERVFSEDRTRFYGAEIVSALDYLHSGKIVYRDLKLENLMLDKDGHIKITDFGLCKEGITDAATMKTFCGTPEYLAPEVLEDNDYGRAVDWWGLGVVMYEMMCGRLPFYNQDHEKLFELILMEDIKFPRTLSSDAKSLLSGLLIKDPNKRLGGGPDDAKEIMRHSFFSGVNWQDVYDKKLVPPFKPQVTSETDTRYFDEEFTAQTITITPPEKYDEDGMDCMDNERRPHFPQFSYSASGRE
# Procedure, shortened: as §1
# EGFR = biological target: T4, EGFR (Homo sapiens, UniProt P00533); test: Kinase inhibition assay (33P transfer), EGFR; details: Table 2, kinase inhibition class; read-out: EGFR-1
# T4 construct: Kinases are expressed as either kinase domains or full length constructs; made in house
# T4 sequence (P00533 25-1210, species assumed): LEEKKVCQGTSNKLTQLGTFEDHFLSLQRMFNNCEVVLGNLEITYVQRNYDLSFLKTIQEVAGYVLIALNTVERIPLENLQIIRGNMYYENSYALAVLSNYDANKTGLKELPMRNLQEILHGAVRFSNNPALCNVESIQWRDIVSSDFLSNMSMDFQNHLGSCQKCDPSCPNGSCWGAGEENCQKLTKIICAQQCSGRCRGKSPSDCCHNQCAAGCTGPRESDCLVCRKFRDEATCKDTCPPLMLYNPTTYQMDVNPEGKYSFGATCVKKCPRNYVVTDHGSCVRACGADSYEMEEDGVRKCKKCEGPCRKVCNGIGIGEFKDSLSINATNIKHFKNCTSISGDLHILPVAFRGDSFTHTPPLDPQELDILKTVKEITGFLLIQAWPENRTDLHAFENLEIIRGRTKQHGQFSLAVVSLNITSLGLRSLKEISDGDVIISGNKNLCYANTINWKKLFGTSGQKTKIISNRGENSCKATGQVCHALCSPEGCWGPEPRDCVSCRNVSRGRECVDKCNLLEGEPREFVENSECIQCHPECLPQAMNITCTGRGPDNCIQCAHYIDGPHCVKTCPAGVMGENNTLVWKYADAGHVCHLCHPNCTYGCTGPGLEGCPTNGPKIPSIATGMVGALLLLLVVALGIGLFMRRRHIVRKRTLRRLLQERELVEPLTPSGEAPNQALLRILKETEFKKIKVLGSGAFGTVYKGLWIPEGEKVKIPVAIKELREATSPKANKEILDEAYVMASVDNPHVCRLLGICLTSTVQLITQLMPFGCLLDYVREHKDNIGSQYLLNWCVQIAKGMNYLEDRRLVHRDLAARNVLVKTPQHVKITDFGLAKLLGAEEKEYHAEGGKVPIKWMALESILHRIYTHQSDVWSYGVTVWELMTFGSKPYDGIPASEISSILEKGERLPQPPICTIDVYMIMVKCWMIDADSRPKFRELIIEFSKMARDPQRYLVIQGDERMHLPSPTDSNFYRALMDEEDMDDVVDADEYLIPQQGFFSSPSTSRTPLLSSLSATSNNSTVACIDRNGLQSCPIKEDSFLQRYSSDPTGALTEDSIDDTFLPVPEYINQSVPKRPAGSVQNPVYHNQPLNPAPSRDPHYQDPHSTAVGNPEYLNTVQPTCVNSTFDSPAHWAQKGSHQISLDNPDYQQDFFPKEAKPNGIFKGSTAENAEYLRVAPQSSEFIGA
# Procedure, shortened: (§2)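 Using immobilised substrate copolymers (poly(Glu,Tyr) 4:1; poly(Arg,Ser) 3:1) and [33P]ATP, purified fusion kinases were allowed to react; plates were then rinsed in 0.5% phosphoric acid and counted in a scintillation detector. Half-maximal inhibition of label transfer defines IC50.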
# IGFR-1 = biological target: T5, IGFR-1 (Homo sapiens, UniProt P08069); test: Kinase inhibition assay, IGFR-1 (Table 2); details: Table 2, kinase inhibition class
# T5 construct: Kinases are expressed as either kinase domains or full length constructs; made in house
# Lck = biological target: T6, Lck (Homo sapiens, UniProt P06239); test: Kinase inhibition assay (33P transfer), Lck; details: read-out: Lck-1
# T6 construct: Kinases are expressed as either kinase domains or full length constructs; made in house
# T6 sequence (P06239 whole entry, species assumed, the tested form may be a part): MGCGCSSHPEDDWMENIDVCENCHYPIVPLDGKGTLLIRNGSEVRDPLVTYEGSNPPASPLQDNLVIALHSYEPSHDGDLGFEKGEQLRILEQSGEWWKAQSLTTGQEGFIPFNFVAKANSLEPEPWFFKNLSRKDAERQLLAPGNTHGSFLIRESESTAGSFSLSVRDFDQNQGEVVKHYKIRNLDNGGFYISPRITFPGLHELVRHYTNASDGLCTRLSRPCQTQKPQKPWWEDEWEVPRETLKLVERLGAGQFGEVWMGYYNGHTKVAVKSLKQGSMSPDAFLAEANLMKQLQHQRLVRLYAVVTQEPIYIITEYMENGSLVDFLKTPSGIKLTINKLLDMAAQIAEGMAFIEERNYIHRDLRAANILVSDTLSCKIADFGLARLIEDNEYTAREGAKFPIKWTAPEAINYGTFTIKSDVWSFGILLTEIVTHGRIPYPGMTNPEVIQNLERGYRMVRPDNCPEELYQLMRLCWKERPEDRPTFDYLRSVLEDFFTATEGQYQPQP
# Procedure, shortened: as §1
# Itk = biological target: T7, Itk (Homo sapiens, UniProt Q08881); test: Kinase inhibition assay (33P transfer), Itk; details: read-out: Itk-1
# T7 construct: Kinases are expressed as either kinase domains or full length constructs; made in house
# T7 sequence (Q08881 1-620): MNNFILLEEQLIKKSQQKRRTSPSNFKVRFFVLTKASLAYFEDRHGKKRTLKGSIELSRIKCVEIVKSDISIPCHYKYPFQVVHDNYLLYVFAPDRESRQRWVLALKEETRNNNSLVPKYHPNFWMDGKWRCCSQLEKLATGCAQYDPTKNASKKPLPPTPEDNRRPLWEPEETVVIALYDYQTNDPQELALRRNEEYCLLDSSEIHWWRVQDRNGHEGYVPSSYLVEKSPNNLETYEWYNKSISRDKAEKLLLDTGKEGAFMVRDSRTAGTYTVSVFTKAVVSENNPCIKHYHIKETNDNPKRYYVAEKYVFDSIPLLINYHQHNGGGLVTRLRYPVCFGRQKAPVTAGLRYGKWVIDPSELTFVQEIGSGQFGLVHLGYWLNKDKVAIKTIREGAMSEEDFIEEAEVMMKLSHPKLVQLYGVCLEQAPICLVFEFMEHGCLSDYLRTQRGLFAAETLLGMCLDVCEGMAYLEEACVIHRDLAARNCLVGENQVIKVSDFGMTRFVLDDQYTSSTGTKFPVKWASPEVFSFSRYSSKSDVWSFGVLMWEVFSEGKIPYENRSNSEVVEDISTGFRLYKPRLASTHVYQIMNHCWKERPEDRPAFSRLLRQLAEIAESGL
# Procedure, shortened: as §2
# ErbB2 = biological target: T8, ErbB2 (Homo sapiens, UniProt P04626); test: Kinase inhibition assay (33P transfer), ErbB2; details: read-out: ErbB2-2
# T8 construct: Kinases are expressed as either kinase domains or full length constructs; made in house
# T8 sequence (P04626 23-1255, species assumed): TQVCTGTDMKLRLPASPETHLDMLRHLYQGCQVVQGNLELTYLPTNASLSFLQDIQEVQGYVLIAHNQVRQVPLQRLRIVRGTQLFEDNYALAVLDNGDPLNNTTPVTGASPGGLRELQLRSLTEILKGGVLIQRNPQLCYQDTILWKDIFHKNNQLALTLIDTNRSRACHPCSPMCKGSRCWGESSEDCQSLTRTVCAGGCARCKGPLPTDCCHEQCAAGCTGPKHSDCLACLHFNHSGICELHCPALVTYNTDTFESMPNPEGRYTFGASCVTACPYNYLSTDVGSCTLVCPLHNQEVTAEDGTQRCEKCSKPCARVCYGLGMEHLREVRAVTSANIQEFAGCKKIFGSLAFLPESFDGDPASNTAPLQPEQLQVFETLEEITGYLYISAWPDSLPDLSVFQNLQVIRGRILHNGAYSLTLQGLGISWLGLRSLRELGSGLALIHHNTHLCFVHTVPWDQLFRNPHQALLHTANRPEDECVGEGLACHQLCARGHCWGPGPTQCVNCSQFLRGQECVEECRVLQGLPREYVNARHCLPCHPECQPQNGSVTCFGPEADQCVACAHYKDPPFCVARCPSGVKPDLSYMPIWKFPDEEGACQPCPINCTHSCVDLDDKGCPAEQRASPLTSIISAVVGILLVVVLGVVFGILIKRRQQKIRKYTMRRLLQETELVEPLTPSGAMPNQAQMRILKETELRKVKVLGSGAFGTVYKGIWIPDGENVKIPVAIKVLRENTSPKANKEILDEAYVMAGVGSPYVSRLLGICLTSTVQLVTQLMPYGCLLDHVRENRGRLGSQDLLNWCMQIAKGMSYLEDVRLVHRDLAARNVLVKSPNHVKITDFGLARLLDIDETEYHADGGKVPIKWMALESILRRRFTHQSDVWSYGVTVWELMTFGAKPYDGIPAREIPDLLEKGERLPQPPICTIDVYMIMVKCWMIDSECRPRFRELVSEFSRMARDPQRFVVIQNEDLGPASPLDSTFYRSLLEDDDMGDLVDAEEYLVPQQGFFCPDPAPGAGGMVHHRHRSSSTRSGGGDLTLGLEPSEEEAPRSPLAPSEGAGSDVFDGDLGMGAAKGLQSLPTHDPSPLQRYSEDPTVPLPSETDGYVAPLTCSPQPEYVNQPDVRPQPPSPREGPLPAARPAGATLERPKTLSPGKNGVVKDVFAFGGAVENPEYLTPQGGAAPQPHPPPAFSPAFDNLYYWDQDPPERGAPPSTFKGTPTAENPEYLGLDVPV
# Excerpt: The inhibitor compounds described herein are screened in the following manner. Kinases suitable for use in the following protocol to determine kinase activity of the compounds described herein include, -but are not limited to: Lck, Lyn, Src, Fyn, Syk, Zap-70, Itk, Tec, Btk, EGFR, ErbB2, Kdr, Flt-1, Flt-3, Tek, c-Met, InsR, and AKT.
# Kinases are expressed as either kinase domains or full length constructs fused to glutathione S-transferase (GST) or polyHistidine tagged fusion proteins in either E. colior Baculovirus-High Five expression systems. They are purified to near homogeneity by affinity chromatography essentially as previously described (Lehr et al., 1996; Gish et al., 1995). In some instances, kinases are co-expressed or mixed with purified or partially purified regulatory polypeptides prior to measurement of activity.
# Kinase activity and inhibition are measured essentially by established protocols (Braunwalder et al., 1996). Briefly, The transfer of ^33PO4 from ATP to the synthetic substrates poly(Glu, Tyr) 4:1 or poly(Arg, Ser) 3:1 attached to the bioactive surface of microtiter plates serves as the basis to evaluate enzyme activity. After an incubation period, the amount of phosphate transferred is measured by first washing the plate with 0.5% phosphoric acid, adding liquid scintillant, and then counting in a liquid scintillation detector. The IC50 is determined by the concentration of compound that causes a 50% reduction in the amount of […] incorporated onto the substrate bound to the plate.
# c-Met = biological target: T9, c-Met (Homo sapiens, UniProt P08581); test: Kinase inhibition assay (33P transfer), c-Met; details: Table 2, kinase inhibition class; read-out: Met-1
# T9 construct: Kinases are expressed as either kinase domains or full length constructs; made in house
# Procedure, shortened: as §2
# PDGFRB = biological target: T10, PDGFRB (Homo sapiens, UniProt P09619); test: Kinase inhibition assay (33P transfer), PDGFRB; details: read-out: PDGFRB-1
# T10 construct: Kinases are expressed as either kinase domains or full length constructs; made in house
# T10 sequence (P09619 33-1106, species assumed): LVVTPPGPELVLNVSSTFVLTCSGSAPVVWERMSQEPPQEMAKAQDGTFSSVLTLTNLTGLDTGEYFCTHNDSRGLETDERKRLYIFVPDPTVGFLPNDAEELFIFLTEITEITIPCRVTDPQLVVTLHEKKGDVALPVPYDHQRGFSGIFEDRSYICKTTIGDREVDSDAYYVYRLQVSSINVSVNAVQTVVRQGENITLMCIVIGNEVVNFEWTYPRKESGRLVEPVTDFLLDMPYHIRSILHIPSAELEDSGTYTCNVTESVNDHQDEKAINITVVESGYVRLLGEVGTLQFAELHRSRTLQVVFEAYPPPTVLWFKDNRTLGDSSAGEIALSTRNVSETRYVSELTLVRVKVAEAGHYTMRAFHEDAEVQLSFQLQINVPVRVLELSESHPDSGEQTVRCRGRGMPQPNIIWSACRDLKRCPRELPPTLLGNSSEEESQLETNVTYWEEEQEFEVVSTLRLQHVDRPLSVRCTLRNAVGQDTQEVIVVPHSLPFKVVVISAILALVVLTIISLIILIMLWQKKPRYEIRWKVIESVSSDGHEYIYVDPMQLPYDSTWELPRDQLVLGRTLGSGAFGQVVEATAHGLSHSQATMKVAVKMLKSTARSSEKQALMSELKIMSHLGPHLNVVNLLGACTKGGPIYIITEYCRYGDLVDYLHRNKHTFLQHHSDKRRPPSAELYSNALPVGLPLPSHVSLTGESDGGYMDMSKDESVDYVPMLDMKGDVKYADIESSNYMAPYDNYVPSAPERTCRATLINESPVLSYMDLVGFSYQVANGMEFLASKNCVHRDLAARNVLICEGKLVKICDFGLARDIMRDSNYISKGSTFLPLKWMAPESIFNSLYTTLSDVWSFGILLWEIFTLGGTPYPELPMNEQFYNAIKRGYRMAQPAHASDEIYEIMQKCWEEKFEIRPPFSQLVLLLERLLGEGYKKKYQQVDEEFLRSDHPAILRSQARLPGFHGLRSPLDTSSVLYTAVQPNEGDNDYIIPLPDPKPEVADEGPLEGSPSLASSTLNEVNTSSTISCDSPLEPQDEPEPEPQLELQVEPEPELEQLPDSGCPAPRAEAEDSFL
Compound,IC50 (Zap-70) [µM],IC50 (Kdr) [µM],IC50 (AKT) [µM],IC50 (EGFR) [µM],IC50 (IGFR-1) [µM],IC50 (Lck) [µM],IC50 (Itk) [µM],IC50 (ErbB2) [µM],IC50 (c-Met) [µM],IC50 (PDGFRB) [µM]
Cc1cccc(Nc2ncnc(N(C)c3cccc(Cl)c3)n2)c1 [Compound 709],> 13.8,> 13.8,> 13.8,< 1.23,> 13.8,7.37 to 10.7,> 13.8,1.23 to 7.37,1.23 to 7.37,7.37 to 10.7
CC1CCc2ccccc2N1c1ncnc(N2c3ccccc3CCC2C)n1 (centres unmarked) [Compound 622],> 12.1,> 12.1,> 12.1,6.46 to 9.42,> 12.1,> 12.1,> 12.1,6.46 to 9.42,> 12.1,9.42 to 12.1
COc1ccc(Nc2ncnc(NCc3c(C)cccc3Cl)n2)cc1OC [Compound 791],> 11.7,> 11.7,> 11.7,> 11.7,> 11.7,> 11.7,> 11.7,6.22 to 9.07,> 11.7,> 11.7
CN(c1cccc(Cl)c1)c1ncnc(Nc2ccc(C(F)(F)F)cc2)n1 [Compound 744],> 11.8,> 11.8,> 11.8,1.05 to 6.32,> 11.8,> 11.8,> 11.8,> 11.8,> 11.8,> 11.8
CCN(CC)c1ccc(Nc2ncnc(N3CCCc4cc(C)ccc43)n2)cc1 [Compound 779],> 11.6,> 11.6,> 11.6,> 11.6,> 11.6,> 11.6,> 11.6,> 11.6,> 11.6,> 11.6
COC(=O)c1sccc1Nc1ncnc(N2CCCc3cc(C)ccc32)n1 [Compound 767],> 11.8,> 11.8,> 11.8,> 11.8,> 11.8,> 11.8,> 11.8,> 11.8,> 11.8,> 11.8
COc1cc(Nc2ncnc(-c3cccnc3N)n2)cc(OC)c1OC [Compound 1091],> 12.7,< 1.13,6.77 to 9.88,> 12.7,> 12.7,1.13 to 6.77,9.88 to 12.7,1.13 to 6.77,9.88 to 12.7,< 1.13
CN(C)CCNc1ncnc(Nc2ccc3c(cnn3Cc3ccccc3)c2)n1 [Compound 733],> 11.6,> 11.6,> 11.6,1.03 to 6.18,> 11.6,> 11.6,> 11.6,> 11.6,> 11.6,> 11.6
COc1ccc(Nc2ncnc(NCCCOC(C)C)n2)cc1OC [Compound 785],> 13,> 13,> 13,> 13,> 13,> 13,> 13,> 13,> 13,> 13
COc1ccc(Nc2ncnc(NCC(O)c3ccccc3)n2)cc1OC (centres unmarked) [Compound 780],> 12.2,> 12.2,> 12.2,9.53 to 12.2,> 12.2,6.53 to 9.53,> 12.2,> 12.2,> 12.2,9.53 to 12.2

# Now from value to molecule:
IC50 (Zap-70) [µM],IC50 (Kdr) [µM],IC50 (AKT) [µM],IC50 (EGFR) [µM],IC50 (IGFR-1) [µM],IC50 (Lck) [µM],IC50 (Itk) [µM],IC50 (ErbB2) [µM],IC50 (c-Met) [µM],IC50 (PDGFRB) [µM],Compound
> 8.53,0.758 to 4.55,4.55 to 6.63,> 8.53,> 8.53,6.63 to 8.53,> 8.53,0.758 to 4.55,> 8.53,6.63 to 8.53,COc1cc(Nc2ncnc(-n3c(NCc4ccc5c(c4)OCO5)nc4ccccc43)n2)cc(OC)c1OC [Compound 595]
> 11.4,8.9 to 11.4,> 11.4,1.02 to 6.1,> 11.4,1.02 to 6.1,> 11.4,> 11.4,> 11.4,6.1 to 8.9,COc1cc(Nc2ncnc(NC3CCc4ccccc43)n2)cc(OC)c1OC (centres unmarked) [Compound 581]
> 10.8,0.957 to 5.74,> 10.8,0.957 to 5.74,< 0.957,< 0.957,0.957 to 5.74,0.957 to 5.74,8.38 to 10.8,< 0.957,COc1ccc(Cl)cc1Nc1ncnc(Nc2cc(OC)c(OC)c(OC)c2)n1 [Compound 627]
7.62 to 9.79,0.87 to 5.22,7.62 to 9.79,0.87 to 5.22,0.87 to 5.22,5.22 to 7.62,0.87 to 5.22,0.87 to 5.22,5.22 to 7.62,5.22 to 7.62,c1ccc(Cn2ncc3cc(Nc4ncnc(Nc5cc(-c6ccccc6)[nH]n5)n4)ccc32)cc1 [Compound 737]
> 10.4,0.924 to 5.54,> 10.4,< 0.924,> 10.4,5.54 to 8.09,> 10.4,> 10.4,> 10.4,0.924 to 5.54,CC(=O)NS(=O)(=O)c1ccc(Nc2ncnc(N(C)c3cccc(Cl)c3)n2)cc1 [Compound 751]
> 9.89,0.879 to 5.28,> 9.89,< 0.879,7.69 to 9.89,0.879 to 5.28,> 9.89,0.879 to 5.28,0.879 to 5.28,0.879 to 5.28,CN(c1cccc(Cl)c1)c1ncnc(Nc2cccc(CNC(=O)O[C@@H]3CCOC3)c2)n1 [Compound 721]
> 10.9,5.83 to 8.51,> 10.9,< 0.972,> 10.9,0.972 to 5.83,> 10.9,< 0.972,> 10.9,0.972 to 5.83,COc1cc(Nc2ncnc(Nc3cccc(CC(=O)O)c3)n2)cc(OC)c1OC [Compound 624]
